Results as given in patent publication US20050271676A1, “Inducing cellular immune responses to human immunodeficiency virus-1 using peptide and nucleic acid compositions” (Epimmune Inc., priority 1993, published 2005).
No end group written: not given here.

What was measured:
[1] = molecular target: HLA-A*0206 (Homo sapiens, UniProt P04439, D140Y/D185E/D98H/E176V/E277Q/F33Y/G131W/G231S/I119V/I121R/I166T/I218V/L300P/L318F/N151K/N90K/P208A/P217A/Q86G/Q94H/R138H/R169H/T345S); experiment: purified HLA class I binding assay, A*0206
[2] = molecular target: HLA-A*0202 (Homo sapiens, UniProt P04439, D140Y/D185E/D98H/E176V/E277Q/G131W/G231S/I119L/I121R/I166T/I218V/L180W/L300P/L318F/N151K/N90K/P208A/P217A/Q67R/Q86G/Q94H/R138H/R169H/T345S); experiment: purified HLA class I binding assay, A*0202
[3] = molecular target: HLA-A*6802 (Homo sapiens, UniProt P04439, A269V/D140Y/D185E/E176V/E277Q/E87N/F33Y/G231S/I121R/I166T/I218V/L180W/L300P/L318F/N151K/P208A/P217A/Q86R/R138H/R169H/S129P/T345S/V36M); experiment: purified HLA class I binding assay, A*6802
[4] = molecular target: HLA-A*0203 (Homo sapiens, UniProt P04439, A173T/D140Y/D185E/D98H/E277Q/G131W/G231S/I119V/I121R/I166T/I218V/L180W/L300P/L318F/N151K/N90K/P208A/P217A/Q86G/Q94H/R138H/R169H/T345S); experiment: purified HLA class I binding assay, A*0203
[5] = molecular target: T1, HLA-DRB1*0301 (DR3) (Homo sapiens, UniProt P01903+P01911, A100K/A102G/A103R/A169T/F55Y/I96L/K41T/L162R/M171V/P40S/Q125H/Q178H/Q39Y/R42S/S66N/T106N/T262R/W38E/Y61H); experiment: purified HLA class II binding assay, DRB1*0301 (DR3), pH 4.5; details: for DR3 binding information: Table XXd, HIV DR 3b motif peptides
T1 construct: endogenous in cells; host or cells: MAT
T1 sequence (P01903 26-254 partner, other chains not shown): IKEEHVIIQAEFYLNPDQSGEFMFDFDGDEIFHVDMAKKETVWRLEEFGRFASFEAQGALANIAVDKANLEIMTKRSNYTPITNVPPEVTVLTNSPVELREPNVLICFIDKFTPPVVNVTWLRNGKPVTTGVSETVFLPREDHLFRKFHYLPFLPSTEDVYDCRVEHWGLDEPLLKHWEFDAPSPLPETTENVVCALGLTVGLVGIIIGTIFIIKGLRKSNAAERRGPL

[6] = molecular target: HLA-A*0201 (Homo sapiens, UniProt P04439, D140Y/D185E/D98H/E176V/E277Q/G131W/G231S/I119V/I121R/I166T/I218V/L300P/L318F/N151K/N90K/P208A/P217A/Q86G/Q94H/R138H/R169H/T345S); experiment: purified HLA class I binding assay, A*0201
[7] = molecular target: T2, HLA-DRB1*0701 (DR7) (Homo sapiens, UniProt P01903+P01911, A100R/A102G/A103Q/D57E/D86V/E43K/F76Y/K127E/L162R/M171V/P40G/Q125H/Q99D/R33Q/R42Y/R54Q/S133A/S66F/T210M/V115G/Y107V/Y59L/Y89S); experiment: biochemical; format: binding
T2 construct: endogenous in cells; host or cells: Pitout

[8] = molecular target: T3, HLA-DRB1*0802 (DR8w2) (Homo sapiens, UniProt P01903+P01911, A100R/A103L/A169T/F76Y/H45Y/I96F/K41T/L162R/M171V/P40S/Q125H/Q178H/Q39Y/Q99D/R218S/R42G/S66Y/V115G/W38E); experiment: biochemical; format: binding
T3 construct: endogenous in cells

[9] = molecular target: HLA-DRB1*1302 (DR6w19) (Homo sapiens, UniProt P01903+P01911, A100E/A169T/K41T/L162R/M171V/P40S/Q125H/Q178H/Q39Y/Q99D/R42S/S66N/T262R/V115G/W38E/Y61H); experiment: purified HLA class II binding assay, DRB1*1302 (DR6w19); details: Table XXb, HIV DR 3a motif peptides
[10] = molecular target: T4, HLA-A*0301 (Homo sapiens, UniProt P04439); experiment: purified HLA class I binding assay, A*0301; details: HIV POL-derived A03 motif peptides; binding value for purified HLA-A*0301, unit not given
T4 construct: endogenous in cells; host or cells: GM3107

Compound	IC50 [1]	IC50 [3]	IC50 [4]	other results
CC(C)C[C@H](NC(=O)[C@H](CCCCN)NC(=O)[C@H](Cc1ccccc1)NC(=O)[C@H](CS)NC(=O)[C@H](Cc1c[nH]c2ccccc12)NC(=O)CNC(=O)[C@H](Cc1ccccc1)NC(=O)[C@@H](NC(=O)[C@H](CC(C)C)NC(=O)[C@@H]1CCCN1)[C@@H](C)O)C(=O)O [25.0142]	3700 nM	47.6 nM		IC50 [2]: 741 nM
CSCC[C@H](NC(=O)[C@H](C)NC(=O)[C@@H](N)CCCNC(=N)N)C(=O)N[C@@H](C)C(=O)N[C@@H](CO)C(=O)N[C@@H](CC(=O)O)C(=O)N[C@@H](Cc1ccccc1)C(=O)N[C@@H](CC(N)=O)C(=O)N[C@@H](CC(C)C)C(=O)O [1260.10]			25000 nM	
CC[C@H](C)[C@H](NC(=O)[C@@H](NC(=O)CNC(=O)[C@H](CC(C)C)NC(=O)[C@H](C)NC(=O)[C@H](Cc1ccc(O)cc1)NC(=O)[C@H](CCC(N)=O)NC(=O)[C@H](CO)NC(=O)[C@H](CC(=O)O)NC(=O)[C@@H](NC(=O)[C@@H](NC(=O)[C@@H](NC(=O)[C@H](CC(N)=O)NC(=O)[C@@H](NC(=O)[C@@H](N)CCC(=O)O)C(C)C)[C@@H](C)CC)C(C)C)[C@@H](C)O)[C@@H](C)CC)C(=O)O [Peptide 35.0127]				IC50 [5]: 732 nM
CSCC[C@H](NC(=O)[C@H](C)NC(=O)[C@H](CCC(=O)O)NC(=O)[C@H](C)NC(=O)[C@H](CC(C)C)NC(=O)[C@@H](N)C(C)C)C(=O)N[C@@H](CO)C(=O)N[C@@H](CCC(N)=O)C(=O)N[C@H](C(=O)O)C(C)C [Peptide 1069.32]			15.2 nM	IC50 [2]: 82.7 nM
CC[C@H](C)[C@H](NC(=O)[C@H](CC(=O)O)NC(=O)[C@@H](NC(=O)[C@H](C)NC(=O)[C@H](CC(N)=O)NC(=O)[C@H](CC(C)C)NC(=O)[C@H](CC(C)C)NC(=O)[C@@H](N)CO)[C@@H](C)O)C(=O)N[C@@H](C)C(=O)N[C@H](C(=O)O)C(C)C [Peptide 1211.09]	28.5 nM	5480 nM		IC50 [2]: 1300 nM
CC[C@H](C)[C@H](NC(=O)[C@@H]1CCCN1C(=O)[C@@H]1CCCN1C(=O)[C@H](CC(N)=O)NC(=O)[C@H](CC(N)=O)NC(=O)[C@@H](NC(=O)[C@@H](N)CCSC)[C@@H](C)O)C(=O)N1CCC[C@H]1C(=O)N[C@H](C(=O)O)C(C)C [Peptide 1261.03]		12.1 nM		IC50 [2]: 7170 nM
CC(C)C[C@H](NC(=O)[C@H](CCCCN)NC(=O)[C@H](Cc1ccccc1)NC(=O)[C@H](CS)NC(=O)[C@H](Cc1c[nH]c2ccccc12)NC(=O)CNC(=O)[C@H](Cc1ccccc1)NC(=O)[C@@H](NC(=O)[C@@H](N)CC(C)C)[C@@H](C)O)C(=O)O [Peptide 1261.04]	206 nM	5.6 nM	4550 nM	
CC[C@H](C)[C@H](NC(=O)CNC(=O)[C@H](C)NC(=O)[C@H](Cc1c[nH]c2ccccc12)NC(=O)[C@H](Cc1c[nH]c2ccccc12)NC(=O)[C@H](CS)NC(=O)[C@H](C)NC(=O)[C@H](C)NC(=O)[C@@H](N)CCCCN)C(=O)O [Peptide 1261.07]	161 nM		83.3 nM	
CC[C@H](C)[C@H](NC(=O)[C@H](CC(N)=O)NC(=O)[C@@H](NC(=O)[C@@H]1CCCN1C(=O)[C@@H](NC(=O)[C@@H]1CCCN1C(=O)CNC(=O)[C@@H](NC(=O)[C@@H](N)CC(C)C)C(C)C)[C@@H](C)O)C(C)C)C(=O)O [Peptide 1261.09]	2850 nM	67.8 nM	19.2 nM	
CC[C@H](C)[C@H](NC(=O)[C@H](Cc1ccccc1)NC(=O)[C@H](CC(C)C)NC(=O)[C@H](CC(C)C)NC(=O)[C@H](CCC(N)=O)NC(=O)[C@H](CCC(N)=O)NC(=O)[C@H](CC(C)C)NC(=O)[C@@H](NC(=O)[C@@H](N)CCCNC(=N)N)[C@@H](C)CC)C(=O)O [Peptide 1261.12]	37 nM	1820 nM		IC50 [6]: 19.2 nM
CC(C)C[C@H](NC(=O)[C@H](CCCCN)NC(=O)[C@H](Cc1ccccc1)NC(=O)[C@H](CS)NC(=O)[C@H](Cc1c[nH]c2ccccc12)NC(=O)CNC(=O)[C@H](Cc1ccccc1)NC(=O)[C@@H](NC(=O)[C@@H](N)CC(C)C)[C@@H](C)O)C(=O)N[C@H](C(=O)O)C(C)C [Peptide 1261.14]		6.2 nM		IC50 [2]: 48.9 nM
CC[C@H](C)[C@H](NC(=O)[C@H](Cc1ccccc1)NC(=O)CNC(=O)CNC(=O)[C@@H](NC(=O)CNC(=O)CNC(=O)[C@@H](NC(=O)[C@H](CCSC)NC(=O)[C@@H](N)CCCCN)[C@@H](C)CC)[C@@H](C)CC)C(=O)O [Peptide 1261.17]	771 nM		4.8 nM	IC50 [2]: 54.4 nM
CTEMEKBGKISKIGP				DR3 binding information [5]: 0.0110
DGAANRETKLCKAGY				DR3 binding information [5]: −0.0017
FIHNFKRKG				DR7 binding information [7]: 0.0048
FLQSRPEPT [25.0037]			32.3 nM	
FSPEVIPMF				DR7 binding information [7]: 0.0023
FYVDGAANR				DR8w2 binding information [8]: 0.0035; DR7 binding information [7]: −0.0014; DR6w19 binding information [9]: −0.0002
GAVVIQDNSDLKVVP [Peptide 35.0133]				IC50 [5]: 1000 nM
IDPENPYNT				DR7 binding information [7]: −0.0005
IILKTAVQMA				A0301 (HIV A03 Motif Peptides with Binding Information) [10]: 0.0003; A*0201 (binding information) ([6]; HIV A02 super motif peptides, Table VIII, unit not given): 0.0033
